For one compound, IC50 results are on record in PubChem BioAssay AID2068 (Sanford-Burnham Center for Chemical Genomics, 2009).

This assay addresses Tyrosine-protein phosphatase non-receptor type 7 (Homo sapiens) (UniProt P35236). The assay can be described thus: redox-dependent HePTP inhibition, mechanism study, biochemical, fluorescence (AID 2068). As to conditions: recombinant HePTP, fluorescent phosphatase assay, redox-state modulation.

Chain of Tyrosine-protein phosphatase non-receptor type 7 (Homo sapiens) (P35236 whole entry, looked up): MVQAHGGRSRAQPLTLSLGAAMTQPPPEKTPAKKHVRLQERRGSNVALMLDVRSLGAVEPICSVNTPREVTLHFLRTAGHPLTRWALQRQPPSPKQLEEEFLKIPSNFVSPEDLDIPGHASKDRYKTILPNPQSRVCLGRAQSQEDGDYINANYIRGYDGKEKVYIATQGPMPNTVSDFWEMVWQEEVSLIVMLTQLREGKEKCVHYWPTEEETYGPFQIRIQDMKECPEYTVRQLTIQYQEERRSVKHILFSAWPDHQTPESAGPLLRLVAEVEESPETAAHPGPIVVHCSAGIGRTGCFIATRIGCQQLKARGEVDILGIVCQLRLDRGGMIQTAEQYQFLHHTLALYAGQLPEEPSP

Take `O=C(O)CSc1cc(C(=O)c2ccccc2O)cn2c(=O)c3c(-c4ccccc4)csc3nc12`: the IC50 is 1750 nM.
